The text below walks through data of paper PMC9317443 (Viruses, 2022).

A short description of series [1]: MTT cytotoxicity / cell viability in CHIKV replicon cells. Conditions: hamster, BHK-21-GLuc-nsP-CHIKV-99659 cells (CHIKV replicon cells). For orientation: In antiviral work, replicon cells carry a viral genome segment that copies itself.
The subject of series [2] is CHIKV replicon. Description: CHIKV replicon-based assay (GLuc activity in BHK-21-GLuc-nsP-CHIKV-99659 cells). Conditions: for inhibition at 10 µM: read-out: GLuc Inhibition; for EC50: read-out: EC50 (concentration required to inhibit 50% of the GLuc activity), 48 h; for SI (CC50/EC50): replicon-based assay.
Series [3] has as its system BHK-21-GLuc-nsP-CHIKV-99659 cells. Description: MTT cytotoxicity / cell viability in CHIKV replicon cells. Conditions: CHIKV replicon cells, 48 h, MTT assay; for CC50: read-out: CC50 (50% cytotoxicity).
In series [4] the test system is CHIKV-nanoluc. Nature of the series: Viral infection assay with CHIKV-nanoluc in BHK-21 cells. In kind it is cell-based, Chikungunya virus. Conditions: MOI 0.1, 16 h.p.i., read-out: EC50 (CHIKV-nanoluc replication).
The subject of series [5] is BHK-21 cells. Nature of the series: Cell viability in the viral infection assay. The class given is cell-based.
A short description of series [6]: Cell viability in the viral infection assay. Conditions: hamster, BHK-21 cells infected with CHIKV-nanoluc. The class given is cell-based.
The conditions of series [7]: cited from earlier work.
In series [8] the test system is replication-transcription complex (RTC). Conditions: cited from earlier work.
Setting [9] is: CHIKV replicon cells, GLuc signal from supernatant.

Like-named read-outs stand apart in the source and are kept apart here.

Molecule `Clc1ccccc1C(c1ccccc1)(c1ccccc1)n1ccnc1` [Clotrimazole] returned a viability at 10 µM in series [1] of 70.2%. Further, the inhibition at 10 µM in series [2] (Chikungunya virus) is 70.7%.

For `Clc1ccc(COC(Cn2ccnc2)c2ccc(Cl)cc2Cl)cc1` (stereo not shown) [Econazole], the viability at 10 µM in series [1] stood at 81.8%. Moreover, the inhibition at 10 µM in series [2] (Chikungunya virus) is 43.8%.

In the case of `OC(Cn1cncn1)(Cn1cncn1)c1ccc(F)cc1F` [Fluconazole], the viability at 10 µM in series [1] turned out to be 94.3%. The inhibition at 10 µM in series [2] (Chikungunya virus) worked out at 0%.

As to `O=C(N[C@@H]1CCCc2c1[nH]c1ccc(Cl)cc21)c1ccccn1` [GSK-983], in series [3], the “CC50 (50% cytotoxicity)” value is recorded as “moderate toxicities”. Also, the CC50 in series [3] is 10 ± 0.07 µM; in series [5] it was above 100 µM. The results for the EC50 in series [4] and in series [2] (setting [9]) were 13.8 ± 3.3 µM and 330 ± 200 nM, respectively. Also, the “SI (CC50/EC50)” value in series [2] is reported as 30.

Molecule `C[C@@H](c1nc(-c2ccc(C#N)cc2)cs1)[C@](O)(Cn1cncn1)c1cc(F)ccc1F` [Isavuconazole] yielded a viability at 10 µM in series [1] of 100%. In addition, the inhibition at 10 µM in series [2] (Chikungunya virus) turned out to be 28.6%.

On to `CCC(C)n1ncn(-c2ccc(N3CCN(c4ccc(OCC5COC(Cn6cncn6)(c6ccc(Cl)cc6Cl)O5)cc4)CC3)cc2)c1=O` (stereo not shown) [Itraconazole, itraconazole], for which, in series [1], the CC50 at 48 h was above 100 µM. Further, the EC50 was 0.34 ± 0.02 µM in series [4] (Chikungunya virus) and 320 ± 200 nM in series [2] (Chikungunya virus). The “SI (CC50/EC50)” value in series [2] is listed as above 312. The molecule also showed a CC50 at 16 h in series [6] above 100 µM.

Regarding `CC(=O)N1CCN(c2ccc(OCC3COC(Cn4ccnc4)(c4ccc(Cl)cc4Cl)O3)cc2)CC1` (stereo not shown) [Ketoconazole], the viability at 10 µM in series [1] is 100%. For the same molecule, the inhibition at 10 µM in series [2] (Chikungunya virus) is 0%.

Consider `C[C@H](C(N)=O)N1CCCC[C@@H]1c1ccc(OCc2cccc(F)c2)cc1` [MMV676270], for which, in series [3], the “CC50 (50% cytotoxicity)” value is recorded as “moderate toxicities”. Also, the figures for the CC50 in series [3] and in series [5] were 52 ± 20 µM and 59.5 µM, respectively. For the same molecule, the EC50 in series [4] came out at 18.4 ± 5 µM; in series [2] (setting [9]), 5200 ± 1000 nM. Further, in series [2], the “SI (CC50/EC50)” value is 10.

In the case of `Clc1ccc(COC(Cn2ccnc2)c2ccc(Cl)cc2Cl)c(Cl)c1` (stereo not shown) [Miconazole], the viability at 10 µM in series [1] stood at 100%. Also, the inhibition at 10 µM in series [2] (Chikungunya virus) was 27.8%.

Take `CC[C@@H]([C@H](C)O)n1ncn(-c2ccc(N3CCN(c4ccc(OC[C@@H]5CO[C@@](Cn6cncn6)(c6ccc(F)cc6F)C5)cc4)CC3)cc2)c1=O` [Posaconazole]: the viability at 10 µM in series [1] came out at 100%. Also, the “no toxic effects up to concentration” value in series [7] was above 100 µM. Moreover, in series [2] (Chikungunya virus), the inhibition at 10 µM is 11.8%.

`C[C@@H](c1nc(-c2ccc(C#N)cc2)cs1)[C@](O)(Cn1cncn1)c1ccc(F)cc1F` [Ravuconazole]: the viability at 10 µM in series [1] stood at 100%. Besides, the inhibition at 10 µM in series [2] (Chikungunya virus) came to 25.4%.

In series [1], `CC[C@@]1(O)C(=O)OCc2c1cc1n(c2=O)Cc2cc3c([N+](=O)[O-])cccc3nc2-1` [Rubitecan, rubitecan] showed a 50% cytotoxic concentration (CC50) at 48 h above 100 µM. Also, the EC50 in series [4] (Chikungunya virus) was 3.6 ± 0.8 µM; in series [2] (Chikungunya virus), 140 ± 30 nM. The “SI (CC50/EC50)” value in series [2] is recorded as above 714. The same molecule came in with a CC50 at 16 h in series [6] above 100 µM.

As to `Clc1ccc(C(Cn2ccnc2)OCc2ccsc2Cl)c(Cl)c1` (stereo not shown) [Tioconazole], in series [1], the viability at 10 µM was 68.4%. Further, the inhibition at 10 µM in series [2] (Chikungunya virus) came to 54.8%.

Consider `C[C@@H](c1ncncc1F)[C@](O)(Cn1cncn1)c1ccc(F)cc1F` [Voriconazole], for which the viability at 10 µM in series [1] was 91.8%. Further, the inhibition at 10 µM in series [2] (Chikungunya virus) is 13.9%.

With `Cc1ccc(C(=O)Nc2ccc(S(=O)(=O)O)c3cc(S(=O)(=O)O)cc(S(=O)(=O)O)c23)cc1NC(=O)c1cccc(NC(=O)Nc2cccc(C(=O)Nc3cc(C(=O)Nc4ccc(S(=O)(=O)O)c5cc(S(=O)(=O)O)cc(S(=O)(=O)O)c45)ccc3C)c2)c1` [suramin], the CC50 at 48 h in series [1] was above 50 µM. Moreover, the EC50 is 3200 ± 300 nM in series [2] (Chikungunya virus) and 6.7 µM in series [8].

In general, viability refers to a per cent measure of how many cells are alive, often set against a control. Read a high viability as less harm to the cells. A word on the inhibition: it is the drop in the measured response relative to a control, in per cent. For orientation: CC50 means the concentration that lowers cell viability or growth by half.
